For this assay, the system named is HIV. Nature of the assay: HOS HIV infectivity assay (Table 2, strain not given). It is filed as cell-based. As to conditions: Human immunodeficiency virus 1, read-out: Activity Level. As to the method: HOS HIV-1 Infectivity Assay
Compounds were profiled against two HIV-1 viruses, the M-tropic (CCR5 utilizing) Ba-L strain and the T-tropic (CXCR4 utilizing) IIIB strain. Both viruses were propagated in human peripheral blood lymphocytes. Compounds were tested for there ability to block infection of the HOS cell line (expressing hCXCR4/hCCR5/hCD4/pHIV-LTR-luciferase) by either HIV-1 Ba-L or HIV-1 IIIB. Compound cytotoxicity was also examined in the absence of virus addition.
HOS HIV-1 Infectivity Assay Format
HOS cells (expressing hCXCR4/hCCR5/hCD4/pHIV-LTR-luciferase) were harvested and diluted in Dulbeccos modified Eagles media supplemented with 2% FCS and non-essential amino acid to a concentration of 60,000 cells/ml. The cells were plated into 96-well plates (100 ul per well) and the plates were placed in a tissue culture incubator (37° C.; 5% CO2/95% air) for a period of 24 h.
Subsequently, 50 ul of the desired drug solution (4 times the final concentration) was added to each well and the plates were returned to the tissue culture incubator (37° C.; 5% CO2/95% air) for 1 h. Following this incubation 50 ul of diluted virus was added to each well (approximately 2 million RLU per well of virus). The plates were returned to the tissue culture incubator (37° C.; 5% CO2/95% air) and were incubated for a further 96 h.
Following this incubation the endpoint for the virally infected cultures was quantified following addition of Steady-Glo Luciferase assay system reagent (Promega, Madison, Wis.). Cell viability or non-infected cultures was measured using a CellTiter-Glo luminescent cell viability assay system (Promega, Madison, Wis.). All luminescent readouts are performed on a Topcount luminescence detector (Packard, Meridien, Conn.).
For the compound `Cc1ccccc1CN(Cc1cn2c(N3CCN(C)CC3)cccc2n1)[C@H]1CCCc2cccnc21` [Example 66, (8S)—N-[(2-Methylphenyl)methyl]-N-{[5-(4-methyl-1-piperazinyl)imidazo[1,2-a]pyridin-2-yl]methyl}-5,6,7,8-tetrahydro-8-quinolinamine], the IC50 is less than 100 nM.

Consider `CN(Cc1cn2c(OCCN3CCCC3)cccc2n1)[C@H]1CCCc2cccnc21` [Example 105, (8S)—N-Methyl-N-[(5-{[2-(1-pyrrolidinyl)ethyl]oxy}imidazo[1,2-a]pyridin-2-yl)methyl]-5,6,7,8-tetrahydro-8-quinolinamine], for which the IC50 is less than 100 nM.

With `CN(C)C1CCN(c2cccc3nc(CN(C)C4CCCc5cccnc54)cn23)CC1` (stereo not shown) [Example 38, N-({5-[4-(Dimethylamino)-1-piperidinyl]imidazo[1,2-a]pyridin-2-yl}methyl)-N-methyl-5,6,7,8-tetrahydro-8-quinolinamine], the IC50 is less than 100 nM.

For `CN1CCN(c2cccc3nc(CN(C)C4CCc5cccnc54)cn23)CC1` (stereo not shown) [Example 46, N-Methyl-N-{[5-(4-methyl-1-piperazinyl)imidazo[1,2-a]pyridin-2-yl]methyl}-6,7-dihydro-5H-cyclopenta[b]pyridin-7-amine], the IC50 is less than 100 nM.

With `CN(C)CCN1CCN(c2cccc3nc(CN(C)C4CCCc5cccnc54)cn23)CC1` (stereo not shown) [Example 32, N-[(5-{4-[2-(Dimethylamino)ethyl]-1-piperazinyl}imidazo[1,2-a]pyridin-2-yl)methyl]-N-methyl-5,6,7,8-tetrahydro-8-quinolinamine], the IC50 lay within 100 to 500 nM.

For the compound `CN1CCC(N(C)c2cccc3nc(CN(C)C4CCCc5cccnc54)cn23)CC1` (stereo not shown) [Example 28, N-Methyl-N-({5-[methyl(1-methyl-4-piperidinyl)amino]imidazo[1,2-a]pyridin-2-yl}methyl)-5,6,7,8-tetrahydro-8-quinolinamine], the IC50 lay within 100 to 500 nM.

As for `CN1CCN(c2cccc3nc(CN(Cc4ccc(C(F)(F)F)cc4)[C@H]4CCCc5cccnc54)cn23)CC1` [Example 71, (8S)—N-{[5-(4-Methyl-1-piperazinyl)imidazo[1,2-a]pyridin-2-yl]methyl}-N-{[4-(trifluoromethyl)phenyl]methyl}-5,6,7,8-tetrahydro-8-quinolinamine], the IC50 was less than 100 nM.

Consider `CC(C)N(Cc1cn2c(N3CCNCC3)cccc2n1)C1CCCc2cccnc21` (stereo not shown) [Example 21, N-(1-Methylethyl)-N-{[5-(1-piperazinyl)imidazo[1,2-a]pyridin-2-yl]methyl}-5,6,7,8-tetrahydro-8-quinolinamine], for which the IC50 was less than 100 nM.

Consider `CN(C)Cc1ccccc1-c1cccc2nc(CN(C)C3CCCc4cccnc43)cn12` (stereo not shown) [Example 42, N-[(5-{2-[(Dimethylamino)methyl]phenyl}imidazo[1,2-a]pyridin-2-yl)methyl]-N-methyl-5,6,7,8-tetrahydro-8-quinolinamine], for which the IC50 lay in the range of 100 to 500 nM.

In the case of `CN(Cc1cn2c(N3CCC(N)CC3)cccc2n1)C1CCCc2cccnc21` (stereo not shown) [Example 37, N-{[5-(4-Amino-1-piperidinyl)imidazo[1,2-a]pyridin-2-yl]methyl}-N-methyl-5,6,7,8-tetrahydro-8-quinolinamine], the IC50 was less than 100 nM.

Take `CCCCN(Cc1cn2c(N3CCN(C)CC3)cccc2n1)[C@H]1CCCc2cccnc21` [Example 58, (8S)—N-Butyl-N-{[5-(4-methyl-1-piperazinyl)imidazo[1,2-a]pyridin-2-yl]methyl}-5,6,7,8-tetrahydro-8-quinolinamine]: the IC50 is less than 100 nM.

In the case of `CN1CCN(c2cccc3nc(CN(C)C4CCCCc5cccnc54)cn23)CC1` (stereo not shown) [Example 47, N-Methyl-N-{[5-(4-methyl-1-piperazinyl)imidazo[1,2-a]pyridin-2-yl]methyl}-6,7,8,9-tetrahydro-5H-cyclohepta[b]pyridin-9-amine], the IC50 is less than 100 nM.

As for `CN(C)CCN(C)c1cccc2nc(CN(C)[C@H]3CCCc4cccnc43)cn12` [Example 81, N,N,N′-Trimethyl-N′-[2-({methyl[(8S)-5,6,7,8-tetrahydro-8-quinolinyl]amino}methyl)imidazo[1,2-a]pyridin-5-yl]-1,2-ethanediamine], the IC50 was less than 100 nM.

Turning to `CN1CCCN(c2cccc3nc(CN(C)C4CCCc5cccnc54)cn23)CC1` (stereo not shown) [Example 31, N-Methyl-N-{[5-(4-methylhexahydro-1H-1,4-diazepin-1-yl)imidazo[1,2-a]pyridin-2-yl]methyl}-5,6,7,8-tetrahydro-8-quinolinamine], the IC50 is less than 100 nM.

`CN(Cc1cn2c(NC(=O)c3ccncc3)cccc2n1)C1CCCc2cccnc21` (stereo not shown) [Example 45, N-(2-{[Methyl(5,6,7,8-tetrahydro-8-quinolinyl)amino]methyl}imidazo[1,2-a]pyridin-5-yl)-4-pyridinecarboxamide]: the IC50 is 500 to 10000 nM.

`CNC1CCN(c2cccc3nc(CN(C)C4CCCc5cccnc54)cn23)CC1` (stereo not shown) [Example 36, N-Methyl-N-({5-[4-(methylamino)-1-piperidinyl]imidazo[1,2-a]pyridin-2-yl}methyl)-5,6,7,8-tetrahydro-8-quinolinamine]: the IC50 was less than 100 nM.

Take `CN1CCN(c2cccc3nc(CN(CCCO)[C@H]4CCCc5cccnc54)cn23)CC1` [Example 79, 3-{{[5-(4-Methyl-1-piperazinyl)imidazo[1,2-a]pyridin-2-yl]methyl}[(8S)-5,6,7,8-tetrahydro-8-quinolinyl]amino}-1-propanol]: the IC50 was less than 100 nM.

In the case of `FC(F)(F)CN(Cc1cn2c(N3CCNCC3)cccc2n1)C1CCCc2cccnc21` (stereo not shown) [Example 22, N-{[5-(1-piperazinyl)imidazo[1,2-a]pyridin-2-yl]methyl}-N-(2,2,2-trifluoroethyl)-5,6,7,8-tetrahydro-8-quinolinamine], the IC50 was 100 to 500 nM.

On to `CN(C)CCNc1cccc2nc(CN(C)[C@H]3CCCc4cccnc43)cn12` [Example 101, N,N-Dimethyl-N′-[2-({methyl[(8S)-5,6,7,8-tetrahydro-8-quinolinyl]amino}methyl)imidazo[1,2-a]pyridin-5-yl]-1,2-ethanediamine], for which the IC50 was less than 100 nM.

In the case of `CN(Cc1cn2c(N3CCN4CCCC4C3)cccc2n1)[C@H]1CCCc2cccnc21` (stereo partly drawn) [Example 82, (8S)—N-{[5-(Hexahydropyrrolo[1,2-a]pyrazin-2(1H)-yl)imidazo[1,2-a]pyridin-2-yl]methyl}-N-methyl-5,6,7,8-tetrahydro-8-quinolinamine], the IC50 was less than 100 nM.

For the compound `CN1CCN(c2cccc3nc(CN(CCO)[C@H]4CCCc5cccnc54)cn23)CC1` [Example 78, 2-{{[5-(4-Methyl-1-piperazinyl)imidazo[1,2-a]pyridin-2-yl]methyl}[(8S)-5,6,7,8-tetrahydro-8-quinolinyl]amino}ethanol], the IC50 was less than 100 nM.

On to `CN(Cc1cn2c(OCCN3CCCCC3)cccc2n1)[C@H]1CCCc2cccnc21` [Example 106, (8S)—N-Methyl-N-[(5-{[2-(1-piperidinyl)ethyl]oxy}imidazo[1,2-a]pyridin-2-yl)methyl]-5,6,7,8-tetrahydro-8-quinolinamine], for which the IC50 was less than 100 nM.

In the case of `CN1CCCN(c2cccc3nc(CN(C)[C@H]4CCCc5cccnc54)cn23)CC1` [Example 85, (8S)—N-Methyl-N-{[5-(4-methylhexahydro-1H-1,4-diazepin-1-yl)imidazo[1,2-a]pyridin-2-yl]methyl}-5,6,7,8-tetrahydro-8-quinolinamine], the IC50 is less than 100 nM.

On to `CC(C)N(Cc1cn2c(N3CC[C@@H](N(C)C)C3)cccc2n1)[C@H]1CCCc2cccnc21` [Example 98, (8S)—N-({5-[(3R)-3-(Dimethylamino)-1-pyrrolidinyl]imidazo[1,2-a]pyridin-2-yl}methyl)-N-(1-methylethyl)-5,6,7,8-tetrahydro-8-quinolinamine], for which the IC50 was less than 100 nM.

Turning to `CN1CCN(c2cccc3nc(CN(C4CC4)C4CCCc5cccnc54)cn23)CC1` (stereo not shown) [Example 34, N-Cyclopropyl-N-{[5-(4-methyl-1-piperazinyl)imidazo[1,2-a]pyridin-2-yl]methyl}-5,6,7,8-tetrahydro-8-quinolinamine], the IC50 was less than 100 nM.

For the compound `CN1CCN(c2cccc3nc(CN(C)[C@@H]4CCCc5cccnc54)cn23)CC1` [Example 52, (8R)—N-Methyl-N-{[5-(4-methyl-1-piperazinyl)imidazo[1,2-a]pyridin-2-yl]methyl}-5,6,7,8-tetrahydro-8-quinolinamine], the IC50 is less than 100 nM.

Take `CN(C)Cc1cccc(-c2cccc3nc(CN(C)C4CCCc5cccnc54)cn23)c1` (stereo not shown) [Example 41, N-[(5-{3-[(Dimethylamino)methyl]phenyl}imidazo[1,2-a]pyridin-2-yl)methyl]-N-methyl-5,6,7,8-tetrahydro-8-quinolinamine]: the IC50 lay within 100 to 500 nM.

In the case of `CCN(Cc1cn2c(N3CC[C@@H](N(C)C)C3)cccc2n1)[C@H]1CCCc2cccnc21` [Example 96, (8S)—N-({5-[(3R)-3-(Dimethylamino)-1-pyrrolidinyl]imidazo[1,2-a]pyridin-2-yl}methyl)-N-ethyl-5,6,7,8-tetrahydro-8-quinolinamine], the IC50 is less than 100 nM.

(Values after US20070232615A1, “Chemical Compounds” (priority 2004, published 2007).)
